Experimental data as given in patent US8772250B2, “Compositions and methods for treating ischemia and ischemia-reperfusion injury” (Ischemix, LLC, priority 2010, dated 2014).

Molecular target: T1, insulin receptor kinase (Homo sapiens, UniProt P06213)
T1 construct: insulin receptor kinase domain (Millipore catalog #14-466, 80 nM); purchased Millipore 14-466
Assay: IRK activation assay (mobility shift kinase assay)
Assay type: biochemical
Source text: Insulin receptor kinase activity was readily measured by a mobility shift assay using a Caliper LabChip® 3000 and a 12-sipper LabChip® to detect both phosphorylated and unphosphorylated substrate (Caliper Life Sciences, Discovery Alliances and Services Division, Hanover, Md.). The mobility-shift kinase assay uses a micro fluidic chip to measure the conversion of a fluorescent peptide substrate to a phosphorylated product. The reaction mixture from a microtiter plate well was introduced through a capillary sipper onto the chip and the nonphosphorylated substrate and phosphorylated product were separated by electrophoresis and detected via laser-induced fluorescence. […] The catalytic subunits of tyrosine kinases have endogenous levels of activity in the presence of ATP and substrate, thus the results are presented as a % of control.
Specifically, each test compound was diluted to 25 times its assay concentration with 100% DMSO and added to 12 μL of an assay buffer solution (100 mM HEPES, 10 mM MnCl2, 5 mM B-GP, and 0.002% Brij) containing dithiotheritol (DTT, 2 mM) and insulin receptor kinase domain (Millipore catalog #14-466, 80 nM) prior to pre-incubation at room temperature for 15 minutes. […] The samples were placed on the LabChip 3000 to measure the amount of parent substrate and phosphorylated product. […]

T1 sequence (P06213 1023-1298 limits assumed): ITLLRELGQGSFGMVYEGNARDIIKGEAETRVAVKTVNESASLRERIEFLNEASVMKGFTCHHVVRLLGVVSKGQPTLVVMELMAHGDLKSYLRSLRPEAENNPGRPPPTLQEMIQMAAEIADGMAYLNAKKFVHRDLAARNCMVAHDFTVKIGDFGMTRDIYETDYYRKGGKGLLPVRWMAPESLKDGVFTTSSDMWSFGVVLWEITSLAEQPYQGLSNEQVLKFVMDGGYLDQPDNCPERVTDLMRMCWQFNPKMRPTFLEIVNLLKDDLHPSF

C[C@H](NC(=O)[C@H](CCC(=O)O)NC(=O)CCCC[C@@H]1CCSS1)C(=O)O [RLip-EA-OH, N-(R)-lipoyl-L-glutamyl-L- alanine]
AVG % activity above control (±SEM) (100 μM): 78 ± 15% | IRK % Increase in activity above vehicle control (300 μM): 77 ± 7%
